Molecules are shown by their SMILES.

Experiment [1] addresses human JAK1 (a.a. 837-1142) (Homo sapiens, UniProt P23458). In words: In vitro JAK kinase assay (HTRF, phosphorylation of a biotinylated peptide), JAK1. The format is biochemical. As to conditions: measured at 1 mM ATP. How it is done:
(§1) Compounds herein were tested for inhibitory activity of JAK targets according to the following in vitro assay described in Park et al., Analytical Biochemistry 1999, 269, 94-104. The catalytic domains of human JAK1 (a.a. 837-1142), Jak2 (a.a. 828-1132) and Jak3 (a.a. 781-1124) with an N-terminal His tag were expressed using baculovirus in insect cells and purified. The catalytic activity of JAK1, JAK2 or JAK3 was assayed by measuring the phosphorylation of a biotinylated peptide. The phosphorylated peptide was detected by homogenous time resolved fluorescence (HTRF). […] Reactions were carried out at room temperature for 1 hr and then stopped with 20 μL 45 mM EDTA, 300 nM SA-APC, 6 nM Eu-Py20 in assay buffer (Perkin Elmer, Boston, Mass.). Binding to the Europium labeled antibody took place for 40 minutes and HTRF signal was measured on a Fusion plate reader (Perkin Elmer, Boston, Mass.).
(In general: Time-resolved FRET reads energy transfer from a long-lived donor to a nearby acceptor.)

The target of experiment [2] is Jak2 (a.a. 828-1132) (Homo sapiens (Human), UniProt O60674). In words: In vitro JAK kinase assay (HTRF, phosphorylation of a biotinylated peptide), JAK2. The format is biochemical. The conditions noted are these: measured at 1 mM ATP. The method, then: as §1
Jak2 (a.a. 828-1132), sequence (O60674 828-1132): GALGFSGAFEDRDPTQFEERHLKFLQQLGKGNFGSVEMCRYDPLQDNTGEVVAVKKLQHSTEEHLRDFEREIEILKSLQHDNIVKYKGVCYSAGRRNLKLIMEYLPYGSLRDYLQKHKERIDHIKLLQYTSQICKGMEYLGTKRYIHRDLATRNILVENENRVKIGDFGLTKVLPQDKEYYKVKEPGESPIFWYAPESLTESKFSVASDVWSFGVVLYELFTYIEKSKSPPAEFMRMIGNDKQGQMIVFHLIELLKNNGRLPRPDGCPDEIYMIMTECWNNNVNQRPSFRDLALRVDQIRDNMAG

In general, IC50 refers to the midpoint of a concentration-inhibition curve. Read a high IC50 as lower potency. For the molecule `CC1CC(N2CC(CC#N)(n3cc(-c4ncnc5[nH]ccc45)cn3)C2)CCN1Cc1c(F)cccc1Cl` (single isomer, unassigned) [Example 244, {1-[1-(2-chloro-6-fluorobenzyl)-2-methylpiperidin-4-yl]-3-[4-(7H-pyrrolo[2,3-d]pyrimidin-4-yl)-1H-pyrazol-1-yl]azetidin-3-yl}acetonitrile], the IC50 was in the range of 5 to 20 nM in experiment [1] and 10 to 50 nM in experiment [2].
For `CC1CC(N2CC(CC#N)(n3cc(-c4ncnc5[nH]ccc45)cn3)C2)CCN1Cc1c(F)cccc1Cl` (single isomer, unassigned) [Example 245, {1-[1-(2-chloro-6-fluorobenzyl)-2-methylpiperidin-4-yl]-3-[4-(7H-pyrrolo[2,3-d]pyrimidin-4-yl)-1H-pyrazol-1-yl]azetidin-3-yl}acetonitrile], the IC50 is 5 to 20 nM in experiment [1] and 10 to 50 nM in experiment [2].
Consider `N#CCC1(n2cc(-c3ncnc4[nH]ccc34)cn2)CN(C2CCN(C(=O)c3ccnc(C(F)(F)F)c3F)CC2)C1` [Example 1, {1-{1-[3-Fluoro-2-(trifluoromethyl)isonicotinoyl]piperidin-4-yl}-3-[4-(7H-pyrrolo[2,3-d]pyrimidin-4-yl)-1H-pyrazol-1-yl]azetidin-3-yl}acetonitrile], for which the IC50 is at most 5 nM in experiment [1] and over 100 nM in experiment [2].
As to `N#CCC1(n2cc(-c3ncnc4[nH]ccc34)cn2)CN(C2CCN(C(=O)c3cccc(Cl)c3)CC2)C1` [Example 19, {1-[1-(3-chlorobenzoyl)piperidin-4-yl]-3-[4-(7H-pyrrolo[2,3-d]pyrimidin-4-yl)-1H-pyrazol-1-yl]azetidin-3-yl}acetonitrile], the IC50 in experiment [1] is at most 5 nM; in experiment [2], at most 10 nM.
As to `CSc1ccc(C(=O)N2CCC(N3CC(CC#N)(n4cc(-c5ncnc6[nH]ccc56)cn4)C3)CC2)cc1F` [Example 62, {1-{1-[3-fluoro-4-(methylthio)benzoyl]piperidin-4-yl}-3-[4-(7H-pyrrolo[2,3-d]pyrimidin-4-yl)-1H-pyrazol-1-yl]azetidin-3-yl}acetonitrile], the half-inhibitory concentration (IC50) in experiment [2] fell in the range of 50 to 100 nM.
Still for that read-out and setting: then `N#CCC1(n2cc(-c3ncnc4[nH]ccc34)cn2)CN(C2CCN(C(=O)c3ccc(C#N)c(F)c3)CC2)C1` [Example 66, 4-[(4-{3-(cyanomethyl)-3-[4-(7H-pyrrolo[2,3-d]pyrimidin-4-yl)-1H-pyrazol-1-yl]azetidin-1-yl}piperidin-1-yl)carbonyl]-2-fluorobenzonitrile], with 50 to 100 nM.
Still for that read-out and setting: the result for `COc1cc(C(F)(F)F)sc1C(=O)N1CCC(N2CC(CC#N)(n3cc(-c4ncnc5[nH]ccc45)cn3)C2)CC1` [Example 70, {1-{1-[3-methoxy-5-(trifluoromethyl)-2-thienylcarbonyl]piperidin-4-yl}-3-[4-(7H-pyrrolo[2,3-d]pyrimidin-4-yl)-1H-pyrazol-1-yl]azetidin-3-yl}acetonitrile] reads at most 10 nM.
Regarding `Cc1csc(C(=O)N2CCC(N3CC(CC#N)(n4cc(-c5ncnc6[nH]ccc56)cn4)C3)CC2)c1` [Example 79, {1-{1-[(4-meth1-2-thienyl)carbonyl]piperidin-4-yl}-3-[4-(7H-pyrrolo[2,3-d]pyrimidin-4-yl)-1H-pyrazol-1-yl]azetidin-3-yl}acetonitrile], the IC50 is at most 5 nM in experiment [1] and at most 10 nM in experiment [2].
The corresponding values for `N#CCC1(n2cc(-c3ncnc4[nH]ccc34)cn2)CN(C2CCN(C(=O)c3ccnc(C(F)(F)F)n3)CC2)C1` [Example 85, [3-[4-(7H-pyrrolo[2,3-d]pyrimidin-4-yl)-1H-pyrazol-1-yl]-1-(1-{[2-(trifluoromethyl)pyrimidin-4-yl]carbonyl}piperidin-4-yl)azetidin-3-yl]acetonitrile] are 5 to 20 nM and over 100 nM.
In experiment [2], `Cc1ccc(C#N)c(N2CCC(C(=O)N3CCC(N4CC(CC#N)(n5cc(-c6ncnc7[nH]ccc67)cn5)C4)CC3)CC2)n1` [Example 108, 2-{4-[(4-{3-(cyanomethyl)-3-[4-(7H-pyrrolo[2,3-d]pyrimidin-4-yl)-1H-pyrazol-1-yl]azetidin-1-yl}piperidin-1-yl)carbonyl]piperidin-1-yl}-6-methylnicotinonitrile] had an IC50 of 10 to 50 nM.
For `N#CCC1(n2cc(-c3ncnc4[nH]ccc34)cn2)CN(C2CCN(C(=O)c3ccc(-c4cccnc4)cc3F)CC2)C1` [Example 120, {1-[1-(2-fluoro-4-pyridin-3-ylbenzoyl)piperidin-4-yl]-3-[4-(7H-pyrrolo[2,3-d]pyrimidin-4-yl)-1H-pyrazol-1-yl]azetidin-3-yl}acetonitrile], the IC50 in experiment [1] is at most 5 nM; in experiment [2], at most 10 nM.
The molecule `N#CCC1(n2cc(-c3ncnc4[nH]ccc34)cn2)CN(C2CCN(C(=O)c3ccc(-c4nccs4)c(F)c3)CC2)C1` [Example 122, {1-{1-[3-fluoro-4-(1,3-thiazol-2-yl)benzoyl]piperidin-4-yl}-3-[4-(7H-pyrrolo[2,3-d]pyrimidin-4-yl)-1H-pyrazol-1-yl]azetidin-3-yl}acetonitrile] displayed an IC50 in experiment [2] of 10 to 50 nM.
`N#CCC1(n2cc(-c3ncnc4[nH]ccc34)cn2)CN(C2CC3CCC(C2)N3C(=O)c2ccnc(C(F)(F)F)c2)C1` (stereo not drawn) [Example 144, (3-[4-(7H-pyrrolo[2,3-d]pyrimidin-4-yl)-1H-pyrazol-1-yl]-1-{8-[2-(trifluoromethyl)isonicotinoyl]-8-azabicyclo[3.2.1]oct-3-yl}azetidin-3-yl)acetonitrile]: the results for the IC50 in experiment [1] and in experiment [2] were 5 to 20 nM and 10 to 50 nM, respectively.
For `N#CCC1(n2cc(-c3ncnc4[nH]ccc34)cn2)CN(C2CC3CCC(C2)N3C(=O)C2CCCC2)C1` (stereo not drawn) [Example 145, {1-[8-(cyclopentylcarbonyl)-8-azabicyclo[3.2.1]oct-3-yl]-3-[4-(7H-pyrrolo[2,3-d]pyrimidin-4-yl)-1H-pyrazol-1-yl]azetidin-3-yl}acetonitrile], in that order: 5 to 20 nM and 10 to 50 nM.
Turning to `N#CCC1(n2cc(-c3ncnc4[nH]ccc34)cn2)CN(C2CC3CCC(C2)N3C(=O)C2CCCCC2)C1` (stereo not drawn) [Example 147, {1-[8-(cyclohexylcarbonyl)-8-azabicyclo[3.2.1]oct-3-yl]-3-[4-(7H-pyrrolo[2,3-d]pyrimidin-4-yl)-1H-pyrazol-1-yl]azetidin-3-yl}acetonitrile], the IC50 in experiment [1] was at most 5 nM; in experiment [2], at most 10 nM.
`N#CCC1(n2cc(-c3ncnc4[nH]ccc34)cn2)CN(C2CC3CCC(C2)N3C(=O)C2CCC(F)(F)CC2)C1` (stereo not drawn) [Example 148, {1-{8-[(4,4-difluorocyclohexyl)carbonyl]-8-azabicyclo[3.2.1]oct-3-yl}-3-[4-(7H-pyrrolo[2,3-d]pyrimidin-4-yl)-1H-pyrazol-1-yl]azetidin-3-yl}acetonitrile] gave an IC50 in experiment [2] of at most 10 nM.
Turning to `N#CCC1(n2cc(-c3ncnc4[nH]ccc34)cn2)CN(C2CCN(C(=O)Nc3ccc(F)cc3C(F)(F)F)CC2)C1` [Example 154, 4-{3-(Cyanomethyl)-3-[4-(7H-pyrrolo[2,3-d]pyrimidin-4-yl)-1H-pyrazol-1-yl]azetidin-1-yl}-N-[4-fluoro-2-(trifluoromethyl)phenyl]piperidine-1-carboxamide], the values for the IC50 in experiment [1] and in experiment [2] were at most 5 nM and 10 to 50 nM, respectively.
On to `CS(=O)(=O)N1CCC(N2CC(CC#N)(n3cc(-c4ncnc5[nH]ccc45)cn3)C2)CC1` [Example 254, {1-[1-(methylsulfonyl)piperidin-4-yl]-3-[4-(7H-pyrrolo[2,3-d]pyrimidin-4-yl)-1H-pyrazol-1-yl]azetidin-3-yl}acetonitrile], for which the half-maximal inhibitory concentration (IC50) in experiment [2] lay in the range of 10 to 50 nM.
Still for that read-out and setting: the result for `CCS(=O)(=O)N1CCC(N2CC(CC#N)(n3cc(-c4ncnc5[nH]ccc45)cn3)C2)CC1` [Example 255, {1-[1-(ethylsulfonyl)piperidin-4-yl]-3-[4-(7H-pyrrolo[2,3-d]pyrimidin-4-yl)-1H-pyrazol-1-yl]azetidin-3-yl}acetonitrile] reads 10 to 50 nM.
In experiment [2], `N#CCC1(n2cc(-c3ncnc4[nH]ccc34)cn2)CN(C2CCN(S(=O)(=O)C3CC3)CC2)C1` [Example 256, {1-[1-(cyclopropylsulfonyl)piperidin-4-yl]-3-[4-(7H-pyrrolo[2,3-d]pyrimidin-4-yl)-1H-pyrazol-1-yl]azetidin-3-yl}acetonitrile] displayed an IC50 of 10 to 50 nM.
In the case of `[2H]C1(N2CC(CC#N)(n3cc(-c4ncnc5[nH]ccc45)cn3)C2)CCN(C(=O)c2ccnc(C(F)(F)F)c2F)CC1` [Example 363, {1-{1-[3-Fluoro-2-(trifluoromethyl)isonicotinoyl]-4-deuteropiperidin-4-yl}-3-[4-(7H-pyrrolo[2,3-d]pyrimidin-4-yl)-1H-pyrazol-1-yl]azetidin-3-yl}acetonitrile], the IC50 in experiment [1] is at most 5 nM; in experiment [2], 50 to 100 nM.
The corresponding values for `[2H]C1([2H])CN(C(=O)c2ccnc(C(F)(F)F)c2F)CC([2H])([2H])C1([2H])N1CC(CC#N)(n2cc(-c3ncnc4[nH]ccc34)cn2)C1` [Example 364, {1-{1-[3-Fluoro-2-(trifluoromethyl)isonicotinoyl]3,3,4,5,5-pentadeuteropiperidin-4-yl}-3-[4-(7H-pyrrolo[2,3-d]pyrimidin-4-yl)-1H-pyrazol-1-yl]azetidin-3-yl}acetonitrile] are at most 5 nM and 50 to 100 nM.
`N#CCC1(n2cc(-c3ncnc4[nH]ccc34)cn2)CN(C2CCN(C(=O)OCC3CCCCC3)CC2)C1` [Example 397, cyclohexylmethyl 4-{3-(cyanomethyl)-3-[4-(7H-pyrrolo[2,3-d]pyrimidin-4-yl)-1H-pyrazol-1-yl]azetidin-1-yl}piperidine-1-carboxylate]: in experiment [2], the IC50 lay within 10 to 50 nM.

(Values after US9999619B2, “Piperidin-4-yl azetidine derivatives as JAK1 inhibitors” (Incyte Corporation, priority 2010, dated 2018).)
